According to patent US12246009B2, “Compositions and methods for treating neurodegenerative, myodegenerative, and lysosomal storage disorders” (GEORGETOWN UNIVERSITY, priority 2018, dated 2025):
Entries after “also recorded” stand apart in the source; their conditions may differ.

System: α-synuclein
Experiment: α-synuclein ELISA in α-synuclein-transfected B35 cells
Type: cell-based, rat
Protocol: Rat neuroblastoma B35 cells were grown in Dulbecco's Modified Eagle's Medium (DMEM) with 10% Fetal Bovine Serum (FBS) and 1% penicillin/streptomycin and incubated at 37° C. with 5% CO2. For the experiments, cells were transferred to 12-well plates (Cat. #150628, ThermoFisher, Waltham, MA) and grown to at least 70% confluence. Transient transfection was performed with 3 μg P301 L tau (Cat. #30145, Addgene) cDNA or 3 μg human α-synuclein cDNA using Fugene HD transfection reagent (Cat. #E2311, Promega, Madison WI) for 24 hours. Cells were treated with 1 mM, 100 μM, 10 μM, 1 μM, 0.1 μM, 0.01 μM, and 0.001 μM dissolved in DMSO or an equivalent 5 ul of DMSO for 5 hours. Cell culture media was collected and cells were harvested using sodium-tris, EDTA, NP-40 (STEN) buffer and centrifuged at 10,000×g for 20 minutes at 4′C and supernatant was collected. Cell viability was determined via lactate dehydrogenase assay (Cat. #88954, Thermofisher) and MTT assay (Cat. #V13154, Thermofisher). Protein was extracted by removing culture medium and adding 0.2 ml 1× STEN buffer (50 mM. Tris (pH 7.6), 150 mM NaCl, 2 mM EDTA, 0.2% NP-40, 0.2% BSA, 20 mM. PMSF and protease cocktail inhibitor) to cell layer and incubated on ice for 10 minutes. The bottom of the well was scraped and allowed to incubate on ice for an additional 10 minutes. Cell lysates were collected, stored at −80° C., and used for additional analyses.
To perform transient transfection of α-synuclein into the rat neuroblastoma B35 cells FuGene® HD Transfection Reagent (Promega Corporation, Madison, WI) was used. Cells were grown in 12-well dishes. […]
Human α-synuclein and p-tau ELISA were performed using 50 μl (1 μg/4 μl) of cell lysates detected with 50 μl primary antibody (3 h) and 100 μl anti-rabbit secondary antibody (30 min) at RT. α-Synuclein levels were measured using human specific ELISA (Invitrogen Inc., Carlsbad, CA) according to manufacturer's protocols. Tau was measured using specific tau at serine 396 according to manufacturer's protocol. […]

## Cc1cccc(-c2cc3nccc(N4CCOCC4)c3s2)c1 [BK40197, 4-(2-(m-Tolyl)thieno[3,2-b]pyridin-7-yl)morpholine]
α-synuclein-transfected B35 cells, 24 hour transfection
  α-synuclein level: does not reduce alpha-synuclein; also recorded: does not significantly reduce

## Cc1cccc(-c2cc3nccc(Nc4cccc(O)c4)c3s2)c1 [BK40196]
Transfected B35 cells, 1 mM and 100 uM
  level of alpha-synuclein: significantly reduced
